In patent US20260274892A1, “MACROCYCLIC BROAD SPECTRUM ANTIBIOTICS” (RQx Pharmaceuticals, Inc., priority 2017, published 2026):

Legend:
[1] = system: Methicillin Resistant Staphylococcus aureus strain USA 200; test: Minimum inhibitory concentration (MIC), CLSI broth micro-dilution, S. aureus; format: cell-based; settings: Staphylococcus aureus, MRSA / USA200, MRSA USA 200, cation adjusted Mueller Hinton Broth + 0.002% Tween-80, 35° C., 22 hours
How it was run: (§1)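 Antibacterial potency is measured as MIC by the CLSI broth dilution method. Bacteria at OD600 0.0005 in Tween-80-supplemented cation-adjusted Mueller Hinton broth face ten twofold compound dilutions for 22 h at 35° C.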

[2] = system: Escherichia coli ATCC 25922; test: Minimum inhibitory concentration (MIC), CLSI broth micro-dilution, E. coli; format: cell-based; settings: Escherichia coli, ATCC25922, 22 h
How it was run: as §1

[3] = Table 6, cation adjusted Mueller Hinton Broth + 0.002% Tween-80, 35° C.

Compound	MIC ([1]; Table 6) [µM]	MIC [2, 3] [µM]	MIC ([1]; Table 8) [µM]	MIC ([2]; Table 8, cation adjusted Mueller Hinton Broth + 0.002% Tween-80, 35° C.) [µM]
Cc1nc(-c2ccc(CCC(C)C)cc2)nc(C)c1C(=O)N[C@@H](CCN)C(=O)N(C)[C@@H]1C(=O)N[C@@H](C)C(=O)N[C@H](C(=O)NCC#N)Cc2ccc(OCCN)c(c2)-c2cc1ccc2OCCN (racemic) [Compound 262, rac-(8S,11S,14S)-3,18-bis(2-aminoethoxy)-N-(cyanomethyl)-11-methyl-14-[methyl-[rac-(2S)-4-amino-2-[[2-(4-isopentylphenyl)-4,6-dimethyl-pyrimidine-5-carbonyl]amino]butanoyl]amino]-10,13-dioxo-9,12-diazatricyclo[13.3.1.12,6]icosa-1(18),2(20),3,5,15(19),16-hexaene-8-carboxamide]	0.0081	0.097	–	–
CCCCCOc1ccc(-c2nc(C)c(C(=O)N[C@@H](CCN)C(=O)N(C)[C@@H]3C(=O)N[C@@H](C)C(=O)N[C@H](C(=O)NCC#N)Cc4ccc(OCCCN)c(c4)-c4cc3ccc4OCCCN)c(C)n2)cc1 (racemic) [Compound 435, rac-(8S,11S,14S)-3,18-bis(3-aminopropoxy)-N-(cyanomethyl)-11-methyl-14-[methyl-[rac-(2S)-4-amino-2-[[4,6-dimethyl-2-(4-pentoxyphenyl)pyrimidine-5-carbonyl]amino]butanoyl]amino]-10,13-dioxo-9,12-diazatricyclo[13.3.1.12,6]icosa-1(18),2(20),3,5,15(19),16-hexaene-8-carboxamide]	0.012	0.094	–	–
Cc1nc(-c2ccc(OC(C)C)cc2)ncc1C(=O)N[C@@H](CCN)C(=O)N(C)[C@@H]1C(=O)N[C@@H](C)C(=O)N[C@H](C(=O)NCC#N)Cc2ccc(OCCN)c(c2)-c2cc1ccc2OCCN (racemic) [Compound 246, rac-(8S,11S,14S)-3,18-bis(2-aminoethoxy)-N-(cyanomethyl)-11-methyl-14-[methyl-[rac-(2S)-4-amino-2-[[2-(4-isopropoxyphenyl)-4-methyl-pyrimidine-5-carbonyl]amino]butanoyl]amino]-10,13-dioxo-9,12-diazatricyclo[13.3.1.12,6]icosa-1(18),2(20),3,5,15(19),16-hexaene-8-carboxamide]	0.067	0.4	–	–
Cc1nc(-c2ccc(C3CCC3)cc2)nc(C)c1C(=O)N[C@@H](CCN)C(=O)N(C)[C@@H]1C(=O)N[C@@H](C)C(=O)N[C@H](C(=O)NCC#N)Cc2ccc(OCCN)c(c2)-c2cc1ccc2OCCN (racemic) [Compound 301, rac-(8S,11S,14S)-3,18-bis(2-aminoethoxy)-N-(cyanomethyl)-11-methyl-14-[methyl-[rac-(2S)-4-amino-2-[[2-(4-cyclobutylphenyl)-4,6-dimethyl-pyrimidine-5-carbonyl]amino]butanoyl]amino]-10,13-dioxo-9,12-diazatricyclo[13.3.1.12,6]icosa-1(18),2(20),3,5,15(19),16-hexaene-8-carboxamide]	0.016	0.094	–	–
CCCCc1ccc(-c2ncc(C(=O)N[C@@H](CCN)C(=O)N(C)[C@@H]3C(=O)N[C@@H](C)C(=O)N[C@H](C(=O)NCC#N)Cc4ccc(OCCN)c(c4)-c4cc3ccc4OCCN)c(C)n2)c(C)c1 (racemic) [Compound 223, rac-(8S,11S,14S)-3,18-bis(2-aminoethoxy)-N-(cyanomethyl)-11-methyl-14-[methyl-[rac-(2S)-4-amino-2-[[2-(4-butyl-2-methyl-phenyl)-4-methyl-pyrimidine-5-carbonyl]amino]butanoyl]amino]-10,13-dioxo-9,12-diazatricyclo[13.3.1.12,6]icosa-1(18),2(20),3,5,15(19),16-hexaene-8-carboxamide]	0.016	0.26	–	–
Cc1nc(C(F)(F)c2ccc(C(C)(C)C)cc2)nc(C)c1C(=O)N[C@@H](CCN)C(=O)N(C)[C@@H]1C(=O)N[C@@H](C)C(=O)N[C@H](C(=O)NCC#N)Cc2ccc(OCCN)c(c2)-c2cc1ccc2OCCN (racemic) [Compound 289, rac-(8S,11S,14S)-3,18-bis(2-aminoethoxy)-N-(cyanomethyl)-11-methyl-14-[methyl-[rac-(2S)-4-amino-2-[[2-[(4-tert-butylphenyl)-difluoro-methyl]-4,6-dimethyl-pyrimidine-5-carbonyl]amino]butanoyl]amino]-10,13-dioxo-9,12-diazatricyclo[13.3.1.12,6]icosa-1(18),2(20),3,5,15(19),16-hexaene-8-carboxamide]	0.016	0.75	–	–
Cc1nc(-c2ccc(N3CCC3)cc2)nc(C)c1C(=O)N[C@@H](CCN)C(=O)N(C)[C@@H]1C(=O)N[C@@H](C)C(=O)N[C@H](C(=O)NCC#N)Cc2ccc(OCCN)c(c2)-c2cc1ccc2OCCN (racemic) [Compound 323, rac-(8S,11S,14S)-3,18-bis(2-aminoethoxy)-N-(cyanomethyl)-11-methyl-14-[methyl-[rac-(2S)-4-amino-2-[[2-[4-(azetidin-1-yl)phenyl]-4,6-dimethyl-pyrimidine-5-carbonyl]amino]butanoyl]amino]-10,13-dioxo-9,12-diazatricyclo[13.3.1.12,6]icosa-1(18),2(20),3,5,15(19),16-hexaene-8-carboxamide]	0.38	1	–	–
Cc1nc(-c2cccc(C(C)(C)C)c2)ncc1C(=O)N[C@@H](CCN)C(=O)N(C)[C@@H]1C(=O)N[C@@H](C)C(=O)N[C@H](C(=O)NCC#N)Cc2ccc(OCCN)c(c2)-c2cc1ccc2OCCN (racemic) [Compound 237, rac-(8S,11S,14S)-3,18-bis(2-aminoethoxy)-N-(cyanomethyl)-11-methyl-14-[methyl-[rac-(2S)-4-amino-2-[[2-(3-tert-butylphenyl)-4-methyl-pyrimidine-5-carbonyl]amino]butanoyl]amino]-10,13-dioxo-9,12-diazatricyclo[13.3.1.12,6]icosa-1(18),2(20),3,5,15(19),16-hexaene-8-carboxamide]	0.0083	0.27	–	–
Cc1nc(-c2ccc(S(F)(F)(F)(F)F)cc2)ncc1C(=O)N[C@@H](CCN)C(=O)N(C)[C@@H]1C(=O)N[C@@H](C)C(=O)N[C@H](C(=O)NCC#N)Cc2ccc(OCCN)c(c2)-c2cc1ccc2OCCN (racemic) [Compound 225, rac-(8S,11S,14S)-3,18-bis(2-aminoethoxy)-N-(cyanomethyl)-11-methyl-14-[methyl-[rac-(2S)-4-amino-2-[[4-methyl-2-[4-(pentafluoro-lambda6-sulfanyl)phenyl]pyrimidine-5-carbonyl]amino]butanoyl]amino]-10,13-dioxo-9,12-diazatricyclo[13.3.1.12,6]icosa-1(18),2(20),3,5,15(19),16-hexaene-8-carboxamide]	0.016	0.19	–	–

Now from value to compound:

MIC ([1]; Table 6) [µM]	MIC [2, 3] [µM]	MIC ([1]; Table 8) [µM]	MIC ([2]; Table 8, cation adjusted Mueller Hinton Broth + 0.002% Tween-80, 35° C.) [µM]	Compound
0.051	1.1	–	–	CCCCCCc1ccc(C(=O)N2C[C@@H](CN)C[C@H]2C(=O)N(C)[C@@H]2C(=O)N[C@@H](C)C(=O)N[C@H](C(=O)NCC#N)Cc3ccc(OCCN)c(c3)-c3cc2ccc3OCCN)c(C)c1 (racemic) [Compound 461, rac-(8S,11S,14S)-3,18-bis(2-aminoethoxy)-N-(cyanomethyl)-11-methyl-14-[methyl-[rac-(2S,4R)-4-(aminomethyl)-1-(4-hexyl-2-methyl-benzoyl)pyrrolidine-2-carbonyl]amino]-10,13-dioxo-9,12-diazatricyclo[13.3.1.12,6]icosa-1(18),2(20),3,5,15(19),16-hexaene-8-carboxamide]
0.053	0.56	–	–	Cc1cc(-c2ccc(CC(C)C)cc2)ncc1C(=O)N[C@@H](CCN)C(=O)N(C)[C@@H]1C(=O)N[C@@H](C)C(=O)N[C@H](C(=O)NCC#N)Cc2ccc(O)c(c2)-c2cc1ccc2OCCN (racemic) [Compound 525, rac-(8S,11S,14S)-18-(2-aminoethoxy)-N-(cyanomethyl)-3-hydroxy-11-methyl-14-[methyl-[rac-(2S)-4-amino-2-[[6-(4-isobutylphenyl)-4-methyl-pyridine-3-carbonyl]amino]butanoyl]amino]-10,13-dioxo-9,12-diazatricyclo[13.3.1.12,6]icosa-1(18),2(20),3,5,15(19),16-hexaene-8-carboxamide]
0.13	6	–	–	CCC[C@H](NC(=O)c1c(C)nc(-c2ccc(C(C)(C)C)cc2)nc1C)C(=O)N[C@@H](CCN)C(=O)N(C)[C@@H]1C(=O)N[C@@H](C)C(=O)N[C@H](C(=O)NCC#N)Cc2ccc(OCCN)c(c2)-c2cc1ccc2OCCN (racemic) [Compound 469, rac-(8S,11S,14S)-3,18-bis(2-aminoethoxy)-N-(cyanomethyl)-11-methyl-14-[methyl-[rac-(2S)-4-amino-2-[[rac-(2S)-2-[[2-(4-tert-butylphenyl)-4,6-dimethyl-pyrimidine-5-carbonyl]amino]pentanoyl]amino]butanoyl]amino]-10,13-dioxo-9,12-diazatricyclo[13.3.1.12,6]icosa-1(18),2(20),3,5,15(19),16-hexaene-8-carboxamide]
–	–	0.047	0.094	CCCCCCOc1ccc(-c2nc(C)c(C(=O)N[C@@H](CCN)C(=O)N(C)[C@@H]3C(=O)N[C@@H](C)C(=O)N[C@H](C(=O)O)Cc4ccc(OCCN)c(c4)-c4cc3ccc4OCCN)c(C)n2)cc1 (racemic) [Compound 641, rac-(8S,11S,14S)-3,18-bis(2-aminoethoxy)-11-methyl-14-[methyl-[rac-(2S)-4-amino-2-[[2-(4-hexoxyphenyl)-4,6-dimethyl-pyrimidine-5-carbonyl]amino]butanoyl]amino]-10,13-dioxo-9,12-diazatricyclo [13.3.1.12,6]icosa-1(18),2(20),3,5,15(19), 16-hexaene-8-carboxylic acid]
